This passage reports IC50 results from ChEMBL document CHEMBL1131696, “Highly constrained dipeptoid analogues containing a type II' beta-turn mimic as novel and selective CCK-A receptor ligands” (Bioorg Med Chem Lett, 1999).

In experiment [1] the target is T1, Cholecystokinin receptor type A (Rattus norvegicus, UniProt P30551).
T1 sequence (P30551 whole entry): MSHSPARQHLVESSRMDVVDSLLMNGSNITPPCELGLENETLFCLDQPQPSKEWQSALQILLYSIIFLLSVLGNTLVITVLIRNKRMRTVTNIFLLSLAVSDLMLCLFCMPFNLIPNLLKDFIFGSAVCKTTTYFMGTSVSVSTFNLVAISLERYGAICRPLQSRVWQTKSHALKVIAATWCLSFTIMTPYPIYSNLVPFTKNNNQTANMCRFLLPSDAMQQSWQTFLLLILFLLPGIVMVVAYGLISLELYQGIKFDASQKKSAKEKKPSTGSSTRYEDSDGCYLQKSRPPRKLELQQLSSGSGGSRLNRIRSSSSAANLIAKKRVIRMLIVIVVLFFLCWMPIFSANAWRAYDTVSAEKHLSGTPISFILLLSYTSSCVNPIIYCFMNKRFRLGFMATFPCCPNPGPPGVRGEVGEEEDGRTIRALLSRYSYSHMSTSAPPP
The experiment can be described thus: Inhibition of [3H]propionyl-CCK-8 binding to rat pancreas cholecystokinin-A (CCK-A) receptor.

The target in experiment [2] is T2, Gastrin/cholecystokinin type B receptor (Mus musculus, UniProt P56481).
T2 sequence (P56481 whole entry): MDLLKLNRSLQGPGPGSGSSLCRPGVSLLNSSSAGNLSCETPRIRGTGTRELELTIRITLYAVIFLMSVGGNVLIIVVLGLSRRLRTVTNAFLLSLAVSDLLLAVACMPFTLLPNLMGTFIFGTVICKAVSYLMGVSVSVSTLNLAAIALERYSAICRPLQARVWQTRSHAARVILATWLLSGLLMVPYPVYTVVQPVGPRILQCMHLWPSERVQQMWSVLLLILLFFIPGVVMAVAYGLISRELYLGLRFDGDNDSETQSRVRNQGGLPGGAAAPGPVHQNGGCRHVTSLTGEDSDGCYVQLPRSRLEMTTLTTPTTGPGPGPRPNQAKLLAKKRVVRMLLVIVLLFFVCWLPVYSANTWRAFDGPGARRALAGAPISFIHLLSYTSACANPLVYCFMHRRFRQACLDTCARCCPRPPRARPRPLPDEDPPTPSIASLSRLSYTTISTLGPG
Kind of experiment: Inhibition of [3H]propionyl-CCK-8 binding to mouse cerebral cortex membrane cholecystokinin-B (CCK-B) receptor. In kind it is tissue-based.

Turning to `C[Si](C)(C)CCOC(=O)C[C@@H](Cc1ccccc1)NC(=O)[C@@H]1Cc2c([nH]c3ccccc23)[C@H]2C[C@H](NC(=O)OCc3ccccc3)C(=O)N21`, the IC50 (in general, the concentration that gives 50% inhibition) is 180 nM in experiment [1] and 1500 nM in experiment [2].
In the case of `CC(C)(C)OC(=O)N[C@H]1C[C@@H]2c3[nH]c4ccccc4c3C[C@@H](C(=O)N[C@H](CC(=O)O)Cc3ccccc3)N2C1=O`, the IC50 in experiment [1] and in experiment [2] was more than 10000 nM in each case.
As to `C[Si](C)(C)CCOC(=O)C[C@H](Cc1ccccc1)NC(=O)[C@@H]1Cc2c([nH]c3ccccc23)[C@H]2C[C@H](NC(=O)OCc3ccccc3)C(=O)N21`, the IC50 was 220 nM in experiment [1] and 2400 nM in experiment [2].
On the same counts, the results for `O=C(O)C[C@H](Cc1ccccc1)NC(=O)[C@@H]1Cc2c([nH]c3ccccc23)[C@H]2C[C@H](NC(=O)OCc3ccccc3)C(=O)N21` are 88 nM and more than 10000 nM.
In the same order, the values of `O=C(O)C[C@H](Cc1ccccc1)NC(=O)[C@@H]1Cc2c([nH]c3ccccc23)[C@@H]2C[C@H](NC(=O)OCc3ccccc3)C(=O)N12` are 635 nM and more than 10000 nM.
In the same order, the values of `O=C(O)C[C@@H](Cc1ccccc1)NC(=O)[C@@H]1Cc2c([nH]c3ccccc23)[C@H]2C[C@H](NC(=O)OCc3ccccc3)C(=O)N21` are 7.4 nM and 2700 nM.
On to `O=C(O)C[C@@H](Cc1ccccc1)NC(=O)[C@@H]1Cc2c([nH]c3ccccc23)[C@@H]2C[C@H](NC(=O)OCc3ccccc3)C(=O)N12`, for which the results for the IC50 in experiment [1] and in experiment [2] were 1000 nM and more than 10000 nM, respectively.
For `C[Si](C)(C)CCOC(=O)C[C@@H](Cc1ccccc1)NC(=O)[C@@H]1Cc2c([nH]c3ccccc23)[C@@H]2C[C@H](NC(=O)OCc3ccccc3)C(=O)N12`, the IC50 in experiment [1] was 1400 nM; in experiment [2] it was more than 10000 nM.
With `CC(C)(C)OC(=O)N[C@H]1C[C@@H]2c3[nH]c4ccccc4c3C[C@@H](C(=O)N[C@@H](CC(=O)O)Cc3ccccc3)N2C1=O`, the figures for the half-inhibitory concentration (IC50) in experiment [1] and in experiment [2] were 4480 nM and more than 10000 nM, respectively.
In the same order, the values of `C[Si](C)(C)CCOC(=O)C[C@H](Cc1ccccc1)NC(=O)[C@@H]1Cc2c([nH]c3ccccc23)[C@@H]2C[C@H](NC(=O)OCc3ccccc3)C(=O)N12` are 460 nM and more than 10000 nM.
